For one test, the target named is JAK3 (Homo sapiens (Human), UniProt P52333). As to the kind of experiment: Jak Biochemical HTRF Assay (JAK3). The conditions noted are these: recombinant GST-tagged catalytic domain, [ATP] 2.9 μM. A general note: TR-FRET usually uses a lanthanide donor and a delayed reading to cut background.
The target of a further test is JAK2 (Homo sapiens (Human), UniProt O60674). As to the kind of experiment: Jak Biochemical HTRF Assay (JAK2). As to conditions: recombinant GST-tagged catalytic domain, [ATP] 8.5 μM.
Chain of JAK2 (O60674 849-1124): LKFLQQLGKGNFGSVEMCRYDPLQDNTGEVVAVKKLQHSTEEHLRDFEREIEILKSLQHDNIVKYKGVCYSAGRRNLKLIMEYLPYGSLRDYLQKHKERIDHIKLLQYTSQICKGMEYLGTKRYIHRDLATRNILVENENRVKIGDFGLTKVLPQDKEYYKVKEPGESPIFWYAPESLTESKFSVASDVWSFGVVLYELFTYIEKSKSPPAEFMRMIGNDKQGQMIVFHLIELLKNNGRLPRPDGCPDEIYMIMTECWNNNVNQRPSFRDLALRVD

Chain of JAK3 (P52333 822-1111): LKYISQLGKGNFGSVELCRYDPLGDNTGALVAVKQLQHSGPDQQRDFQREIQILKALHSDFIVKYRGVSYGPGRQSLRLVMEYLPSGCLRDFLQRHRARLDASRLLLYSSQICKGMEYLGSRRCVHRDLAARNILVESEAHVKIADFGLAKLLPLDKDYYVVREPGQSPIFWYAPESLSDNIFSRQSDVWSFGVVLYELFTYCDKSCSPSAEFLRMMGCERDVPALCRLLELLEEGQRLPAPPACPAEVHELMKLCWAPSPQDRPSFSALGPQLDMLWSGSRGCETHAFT

As to `C=C(CO)C(=O)Nc1cccc(-c2ncnc3[nH]cc(C(=O)OCC)c23)c1` [Example 15-2, Ethyl-4-(3-{[2-(hydroxymethyl)acryloyl]amino}phenyl)-7H-pyrrolo[2,3-d]pyrimidine-5-carboxylate], the IC50 on JAK3 is 0.02 nM; on JAK2, more than 1500 nM.
`CCOC(=O)c1c[nH]c2ncnc(-c3cccc(NC(=O)/C=C/CN(C)C)c3)c12` [Example 16, Ethyl-4-(3-{[(2E)-4-(dimethylamino)but-2-enoyl]amino}phenyl)-7H-pyrrolo[2,3-d]-pyrimidine-5-carboxylate]: the IC50 at JAK3 is 0.2 nM; on JAK2, more than 1500 nM.
For `CCOC(=O)c1c[nH]c2ncnc(-c3cccc(NC(=O)/C(C)=C/CN(C)C)c3)c12` [Example 17, Ethyl 4-(3-{[(2E)-4-(dimethylamino)-2-methylbut-2-enoyl]amino}phenyl)-7H-pyrrolo[2,3-d]pyrimidine-5-carboxylate], in that order: 6.6 nM and more than 1500 nM.
Consider `CCOC(=O)c1c[nH]c2ncnc(-c3cccc(NC(=O)C4(C)CO4)c3)c12` (stereo not shown) [Example 18-1, Ethyl-4-(3-(2-methyloxirane-2-carboxamido)phenyl)-7H-pyrrolo[2,3-d]pyrimidine-5-carboxylate], for which the figures for the half-inhibitory concentration (IC50) at JAK3 and at JAK2 were 0.056 nM and more than 1500 nM, respectively.
`CCOC(=O)c1c[nH]c2ncnc(-c3cccc(NC(=O)C(C)(O)CO)c3)c12` (stereo not shown) [Example 18-2, Ethyl-4-(3-(2,3-dihydroxy-2-methylpropanamido)phenyl)-7H-pyrrolo[2,3-d]pyrimidine-5-carboxylate]: the IC50 was 10 to 500 nM on JAK3 (given as range class) and more than 500 nM at JAK2 (given as range class).
In the case of `C=C(C)C(=O)Nc1cccc(-c2ncnc3[nH]cc(-c4ccc(CN)cc4)c23)c1` [Example 19, N-(3-{5-[4-(Aminomethyl)phenyl]-7H-pyrrolo[2,3-d]pyrimidin-4-yl}phenyl)-2-methylprop-2-enamide], the IC50 was 10 to 500 nM at JAK3 (given as range class) and more than 500 nM on JAK2 (given as range class).
As for `C=C(C)C(=O)Nc1cccc(-c2ncnc3[nH]cc(-c4cccc(C)c4)c23)c1` [Example 20-1, 2-Methyl-N-{3-[5-(3-methylphenyl)-7H-pyrrolo[2,3-d]pyrimidin-4-yl]phenyl}prop-2-enamide], the IC50 on JAK3 was 0.17 nM; on JAK2, more than 1500 nM.
Turning to `C=C(C)C(=O)Nc1cccc(-c2ncnc3[nH]cc(-c4cccc(F)c4)c23)c1` [Example 20-2, N-{3-[5-(3-fluorophenyl)-7H-pyrrolo[2,3-d]pyrimidin-4-yl]phenyl}-2-methylprop-2-enamide], the values for the IC50 on JAK3 and on JAK2 were 0.59 nM and more than 1500 nM, respectively.
For `C=C(C)C(=O)Nc1cccc(-c2ncnc3[nH]cc(-c4ccccc4F)c23)c1` [Example 20-3, N-{3-[5-(2-fluorophenyl)-7H-pyrrolo[2,3-d]pyrimidin-4-yl]phenyl}-2-methylprop-2-enamide], in that order: 0.96 nM and more than 1500 nM.
For the compound `C=C(C)C(=O)Nc1cccc(-c2ncnc3[nH]cc(-c4ccc(F)cc4)c23)c1` [Example 20-4, N-{3-[5-(4-fluorophenyl)-7H-pyrrolo[2,3-d]pyrimidin-4-yl]phenyl}-2-methylprop-2-enamide], the IC50 is 1.5 nM at JAK3 and more than 1500 nM on JAK2.
For `C=C(C)C(=O)Nc1cccc(-c2ncnc3[nH]cc(-c4cccc(F)c4Cl)c23)c1` [Example 20-5, N-{3-[5-(2-chloro-3-fluorophenyl)-7H-pyrrolo[2,3-d]pyrimidin-4-yl]phenyl}-2-methylprop-2-enamide], in that order: 1.5 nM and more than 1500 nM.
For `C=C(C)C(=O)Nc1cccc(-c2ncnc3[nH]cc(-c4ccccc4C)c23)c1` [Example 20-6, 2-methyl-N-{3-[5-(2-methylphenyl)-7H-pyrrolo[2,3-d]pyrimidin-4-yl]phenyll}prop-2-enamide], in that order: 5.2 nM and more than 1500 nM.
For `C=C(C)C(=O)Nc1cccc(-c2ncnc3[nH]cc(-c4ccc(C)cc4)c23)c1` [Example 20-7, 2-methyl-N-{3-[5-(4-methylphenyl)-7H-pyrrolo[2,3-d]pyrimidin-4-yl]phenyl}prop-2-enamide], in that order: 5.4 nM and more than 1500 nM.
Consider `C=C(C)C(=O)Nc1cccc(-c2ncnc3[nH]cc(-c4c(C)cc(C)cc4C)c23)c1` [Example 20-8, 2-methyl-N-{3-[5-(2,4,6-trimethylphenyl)-7H-pyrrolo[2,3-d]pyrimidin-4-yl]phenyll}prop-2-enamide], for which the IC50 was 10 to 500 nM at JAK3 (given as range class) and more than 500 nM on JAK2 (given as range class).
Take `C=CC(=O)Nc1cccc(-c2ncnc3[nH]cc(-c4ccccc4)c23)c1` [Example 20-9, N-[3-(5-phenyl-7H-pyrrolo[2,3-d]pyrimidin-4-yl)phenyl]prop-2-enamide]: the IC50 at JAK3 was 0.016 nM; at JAK2, more than 1500 nM.
For the compound `C=C(C)C(=O)Nc1cccc(-c2ncnc3[nH]cc(-c4ccccn4)c23)c1` [Example 21-1, N-(3-(5-(Pyridin-2-yl)-7H-pyrrolo[2,3-d]pyrimidin-4-yl)phenyl)methacrylamide], the IC50 at JAK3 (given as range class) was 10 to 500 nM; at JAK2 (given as range class), more than 500 nM.
As for `C=C(C)C(=O)Nc1cccc(-c2ncnc3[nH]cc(-c4cnc[nH]4)c23)c1` [Example 21-2, N-(3-(5-(1H-imidazol-5-yl)-7H-pyrrolo[2,3-d]pyrimidin-4-yl)phenyl)methacrylamide], the figures for the concentration for half-maximal inhibition (IC50) on JAK3 and at JAK2 were 7.5 nM and more than 1500 nM, respectively.
In the case of `C=C(C)C(=O)Nc1cccc(-c2ncnc3[nH]cc(-c4ccncc4)c23)c1` [Example 21-3, N-(3-(5-(pyridin-4-yl)-7H-pyrrolo[2,3-d]pyrimidin-4-yl)phenyl)methacrylamide], the IC50 on JAK3 (given as range class) was 10 to 500 nM; on JAK2 (given as range class), more than 500 nM.
Consider `C=C(C)C(=O)Nc1cccc(-c2ncnc3[nH]cc(-c4cccnc4)c23)c1` [Example 21-4, N-(3-(5-(pyridin-3-yl)-7H-pyrrolo[2,3-d]pyrimidin-4-yl)phenyl)methacrylamide], for which the values for the half-inhibitory concentration (IC50) at JAK3 and on JAK2 were 9.7 nM and more than 1500 nM, respectively.
With `C=C(C)C(=O)Nc1cccc(-c2ncnc3[nH]cc(C4=CCOCC4)c23)c1` [Example 21-5, N-(3-(5-(3,6-dihydro-2H-pyran-4-yl)-7H-pyrrolo[2,3-d]pyrimidin-4-yl)phenyl)methacrylamide], the IC50 was 5 nM on JAK3 and more than 1500 nM at JAK2.
For `C=C(C)C(=O)Nc1cccc(-c2ncnc3[nH]cc(-c4cnc(C)s4)c23)c1` [Example 21-6, N-(3-(5-(2-methylthiazol-5-yl)-7H-pyrrolo[2,3-d]pyrimidin-4-yl)phenyl)methacrylamide], in that order: 10.3 nM and more than 1500 nM.
`C=C(C)C(=O)Nc1cccc(-c2ncnc3[nH]cc(-c4cncs4)c23)c1` [Example 21-7, N-(3-(5-(thiazol-5-yl)-7H-pyrrolo[2,3-d]pyrimidin-4-yl)phenyl)methacrylamide]: the IC50 is 1.8 nM on JAK3 and more than 500 nM at JAK2.
As for `C=C(C)C(=O)Nc1cccc(-c2ncnc3[nH]cc(-c4ncco4)c23)c1` [Example 22, N-(3-(5-(Oxazol-2-yl)-7H-pyrrolo[2,3-d]pyrimidin-4-yl)phenyl)methacrylamide], the IC50 was 8 nM at JAK3 and more than 1500 nM at JAK2.
On to `C=C(C)C(=O)Nc1cccc(-c2ncnc3[nH]cc(C4CCOCC4)c23)c1` [Example 23, N-(3-(5-(Tetrahydro-2H-pyran-4-yl)-7H-pyrrolo[2,3-d]pyrimidin-4-yl)phenyl)methacrylamide], for which the IC50 on JAK3 is 8.3 nM; on JAK2 it was more than 1500 nM.
Take `C=C(C)C(=O)N(C)c1cccc(-c2ncnc3[nH]cc(C4CCOCC4)c23)c1` [Example 24, N-Methyl-N-(3-(5-(tetrahydro-2H-pyran-4-yl)-7H-pyrrolo[2,3-d]pyrimidin-4-yl)phenyl)methacrylamide]: the IC50 at JAK3 (given as range class) and at JAK2 (given as range class) was more than 500 nM in each case.
`C=C(C)C(=O)Nc1cccc(-c2ncnc3[nH]cc(C4CCCO4)c23)c1` (stereo not shown) [Example 25, N-(3-(5-(Tetrahydrofuran-2-yl)-7H-pyrrolo[2,3-d]pyrimidin-4-yl)phenyl)methacrylamide]: the IC50 on JAK3 (given as range class) is 10 to 500 nM; at JAK2 (given as range class), more than 500 nM.
Take `C=C(C)C(=O)Nc1cccc(-c2ncnc3[nH]cc(-c4nnc(C)o4)c23)c1` [Example 26, N-(3-(5-(5-Methyl-1,3,4-oxadiazol-2-yl)-7H-pyrrolo[2,3-d]pyrimidin-4-yl)phenyl)methacrylamide]: the concentration for half-maximal inhibition (IC50) at JAK3 is 2.5 nM; at JAK2, more than 1500 nM.
As to `C=C(C)C(=O)Nc1cccc(-c2ncnc3[nH]cc(-c4nnc(C)s4)c23)c1` [Example 27, N-(3-(5-(5-Methyl-1,3,4-thiadiazol-2-yl)-7H-pyrrolo[2,3-d]pyrimidin-4-yl)phenyl)methacrylamide], the IC50 is 10 to 500 nM at JAK3 (given as range class) and more than 500 nM at JAK2 (given as range class).
For `C=C(C)C(=O)Nc1cccc(-c2ncnc3[nH]cc(C4=NCC(C)O4)c23)c1` (stereo not shown) [Example 28, N-(3-(5-(5-Methyl-4,5-dihydrooxazol-2-yl)-7H-pyrrolo[2,3-d]pyrimidin-4-yl)phenyl)methacrylamide], in that order: 10 to 500 nM and more than 500 nM.
For `C=C(C)C(=O)Nc1cccc(-c2ncnc3[nH]cc(-c4nc(C)co4)c23)c1` [Example 29, N-(3-(5-(4-Methyloxazol-2-yl)-7H-pyrrolo[2,3-d]pyrimidin-4-yl)phenyl)methacrylamide], in that order: 10 to 500 nM and more than 500 nM.
`C=C(C)C(=O)Nc1cccc(-c2ncnc3[nH]cc(-c4cnco4)c23)c1` [Example 30, N-(3-(5-(Oxazol-5-yl)-7H-pyrrolo[2,3-d]pyrimidin-4-yl)phenyl)methacrylamide]: the values for the IC50 at JAK3 and at JAK2 were 5 nM and more than 1500 nM, respectively.
Take `C=C(C)C(=O)Nc1cccc(-c2ncnc3[nH]cc(-c4nccs4)c23)c1` [Example 31, N-(3-(5-(Thiazol-2-yl)-7H-pyrrolo[2,3-d]pyrimidin-4-yl)phenyl)methacrylamide]: the IC50 was 10 to 500 nM on JAK3 (given as range class) and more than 500 nM at JAK2 (given as range class).

As usually defined, the IC50 is the midpoint of a concentration-inhibition curve.
